The values below come from patent US6369109B1, “Betulinic acid and derivatives thereof useful for the treatment of neuroectodermal tumor” (Deutsches Krebsforschungszentrum Stiftung des Offentlichen …, priority 1998, dated 2002).

The structures appear in SMILES notation.

Test [1] deals with CD95-L and CD95 in SHEP cells transfected with Bcl-2, Bcl-XL or Neo. The test is described as follows: Induction of CD95-L and CD95 (RT-PCR, Western blot, FACS). The test is classed as cell-based, human. The conditions noted are these: 0.5 μg/ml Doxo or 10 μg/ml betulinic acid, 24 h, Bcl-2 or Bcl-XL cells, FIG. 13. As for the experimental part: Cells were stained with anti-APO-1 (CD95) IgGl monoclonal antibody (moab) (1 μg/ml; Trauth et al., 1989, Science 245:301-305) for 45 minutes at 4° C. followed by goat anti-mouse IgG-FITC (Immunotech, Hamburg, Germany) for 30 minutes at 4° C. FII23 IgGl antibody was used as an isotype matched non-binding antibody to control unspecific binding.
Total RNA was prepared using the Qiagen total RNA kit (Qiagen, Hilden, Germany). RNA was converted to cDNA by reverse transcription and amplified for 38 cycles by PCR in a thermocycler (Stratagene, Heidelberg, Germany) using the Gene Amplification RNA-PCR kit (Perkin Elmer, Branchburg, N.J.) following the manufacturer's instructions. A 500-base pair fragment of CD95-L was amplified using primer 5′[…]3′ (SEQ ID:No 1) and 5′[…]3′ (SEQ ID NO:2) and a 311-base pair fragment of CD95 was amplified using primer 5′[…] […]
CD95-L mRNA expression was determined by RT-PCR. […] CD95-L protein was detected as a Mr 37,000 band by mouse anti-CD9S-L moab and enhanced chemiluminescence.
SHEP cells transfected with Bcl-2 or Bcl-XL or a neomycin resistance vector only (Neo) were treated (Lanes+) with 0.5 μg/ml Doxo or 10 μg/ml Bet A for 24 h. CD95 mRNA expression was determined by RT-PCR. […] For FACS analysis of CD95 protein expression (C), cells were stained with mouse anti-APO-1 moab followed Dy FITC-conjugated antimouse IgG antibody and analyzed by flow cytometry. […]
In general terms: In western blotting, separated proteins are transferred to a membrane and probed.

For test [2], the system named is cytochrome c in SHEP cells. Kind of test: Drug-induced release of cyt c from mitochondria in cells (Western blot). It counts as cell-based, human. The conditions noted are these: 0.5 μg/ml Doxo or 10 μg/ml Bet A; FIG. 16A. The procedure: Cells were lysed for 30 mm at 4° C. in PBS with 0.5% Triton X (Serva, Heidelberg, Germany) and 1 mM PMSF (Sigma, Deisenhofen, Germany) followed by high-speed centrifugation. Membrane proteins were eluted in buffer containing 0.1 M glycine, pH 3.0 and 1.5 M Tris, pH 8.8. Protein concentration was assayed using bicinchoninic acid (Pierce, Rockford, Ill.). 40 μg protein per lane was separated by 12% or 15% SDS-PAGE and electroblotted onto nitrocellulose (Amersham, Braunschweig, Germany). Equal protein loading was controlled by Ponceau red staining of membranes. […]
For isolation of mitochondria, cells (3×10^8 per sample) were washed twice with ice-cold PBS and resuspended with five volumes of buffer A (50 mM Tris buffer, 1 mM EGTA, 5 mM 2-mercaptoethanol, 0.2% BSA, 10 mM KH2PO4, pH 7.6, 0.4 M sucrose) and allowed to swell on ice for 20 min. […] The protein concentration of mitochondria or cytosolic extracts was determined by the Bradford method. […]

For `COc1cccc2c1C(=O)c1c(O)c3c(c(O)c1C2=O)C[C@@](O)(C(=O)CO)C[C@@H]3O[C@H]1C[C@H](N)[C@H](O)[C@H](C)O1` [doxorubicin], the “induction of CD95-L and CD95” value in test [1] is “Both CD95-L and CD95 were induced at the mRNA and protein level”. The “mitochondrial cytochrome c levels after stimulation” value in test [2] is “mitochondrial cytochrome c levels declined”.
